# Experimental data as given in article PMC8217011, “Natural brominated phenoxyphenols kill persistent and biofilm-incorporated cells of MRSA and other pathogenic bacteria” (Applied Microbiology and Biotechnology, 2020).
# How the values were obtained:
# MtlA = assay: Global proteome analysis of sublethally treated cells; type: cell-based, Staphylococcus aureus; conditions: Mu50 cells, sublethal concentration allowing ca. 50% residual growth
# Description: After in-solution digestion (ISD) peptides were desalted on home-made C18 StageTips (Rappsilber et al. [2007]). Briefly, the peptide solution was passed over the MeOH pre-conditioned and 0.5% formic acid (FA) equilibrated StageTip. Immobilised peptides were then washed twice with 0.5% (v/v) FA. Washed peptides were eluted from the StageTips with 80% (v/v) ACN and 0.5% (v/v) FA and dried using a vacuum concentrator (Eppendorf). Before LC-MS, peptide samples were resuspended in 10 μL 0.1% (v/v) FA.
# LC-MS/MS experiments were performed on an Orbitrap Elite instrument (Michalski et al. [2012]) (Thermo) that was coupled to an EASY-nLC 1000 liquid chromatography (LC) system (Thermo). […] Product ion spectra were recorded in a data-dependent fashion in the ion trap (ITMS) in a variable scan range and at a rapid scan rate. […] Peptides were analysed using a repeating cycle consisting of a full precursor ion scan (1.0 × 10^6 ions or 50 ms) followed by 15 product ion scans (1.0 × 10^4 ions or 100 ms), where peptides are isolated based on their intensity in the full survey scan (threshold of 500 counts) for tandem mass spectrum (MS2) generation that permits peptide sequencing and identification. […]
# RAW spectra were submitted to an Andromeda (Cox et al. [2011]) search in MaxQuant (version 1.5.3.30) using the default settings (Cox and Mann [2008]). Label-free quantification was activated (Cox et al. [2014]). […]
# [1] = test system: MRSA vector control strain harbouring empty plasmid pLA03; assay: MIC in recombinant strain, empty vector control; type: cell-based; conditions: Staphylococcus aureus
# Description: (§1) To corroborate the role as potential determinants of resistance, mtlA and tetR were overexpressed under control of an anhydrotetracycline (Atc)-inducible promoter, and the effect on sensitivity toward 3-bromo-PP was analysed (Fig. 4e). […] However, induction of mtlA or tetR expression in the presence of Atc strongly rendered the cells more susceptible to 3-bromo-PP resulting in MICs of 0.019 μM for mtlA and 0.078 μM for tetR overexpression, respectively. This translates into a […] and 8-fold increased sensitivity during mtlA or tetR overexpression, respectively, compared with the empty vector control (Fig. 4e).
# [2] = test system: MRSA strain containing pLA03::mtlA; assay: MIC in recombinant strain, mtlA overexpression; type: cell-based, Staphylococcus aureus; conditions: for MIC: Staphylococcus aureus, MRSA
# Description: as §1
compound,measurement,setting,value
"Oc1c(Br)cc(Br)c(Br)c1Oc1ccc(Br)cc1Br [3-bromo-PP, 3,4,6-tribromo-2-(2′,4′-dibromophenoxy)phenol]",downregulation of MtlA protein,MtlA,approx. 2.5 fold
same,MIC,[1],~0.625 µM
same,MIC,[2]; induced with Atc (1 μg/mL anhydrotetracycline),0.019 µM
same,MIC,[2]; non-induced,0.312 µM
same,increased sensitivity compared with the empty vector control,[2]; mtlA overexpression,33 fold
